Measured values as given in patent US9949991B2, “Methods of treating aquaporin-mediated conditions” (Aeromics, Inc., priority 2013, dated 2018).
In brackets after ≈: the same amount, converted by molar mass. Read-outs that look alike come from different tables or passages of the source.

Experiments:
[1] = Bioconversion in mouse plasma in vitro; assay type: in vitro ADME
[2] = test system: mouse water toxicity model (cerebral edema); test: Mouse water toxicity model, brain volume by MRI
Procedure: The first time point at 5.67 min coincides with the scan slice at the middle of the brain during the first post-injection scan. Other time points are placed in a similar manner. The data is fitted to a single exponential equation: V/V0=Vi+dVmax(1−e^(−kt)); • where V/V0=relative brain volume, Vi=initial relative brain volume, dVmax=maximum change in relative brain volume, k=first order rate constant (min^−1), and t=time in minutes.
Mouse Water Toxicity Model—Brain Volume by Magnetic Resonance Imaging (MRI): MRI is used to measure changes in brain volume in response to water shock, using the water toxicity model. As described for the survival and brain water content studies above, mice are injected, IP, with a water bolus alone or water bolus and test compound at 0.76 mg/kg, and changes in brain volume as detected by MRI are monitored. […] High resolution T2-weighted sagittal scans (resolution=0.1 mm×0.1 mm×0.7 mm) of the mouse head are obtained prior to water injection, 5.67 min post water injection, and then every 5.2 minutes until the animal expires from the water loading. […] The cross sectional area of the brain in each imaging slice is measured by manual region-of-interest selection using ImageJ. Brain volumes are then calculated for each scan by summing the individual cross sectional brain areas and multiplying by the slice thickness (0.7 mm).

AQP4 = test: Aquaporin-Mediated Cell Volume Change Assay, CHO cells expressing AQP4 (AQP4b); assay type: cell-based; conditions: 10 μM, stable CHO cell line, FIG. 2
Procedure: (§1) Structure activity relationships (SARs) are determined by assaying analogues of selected hits to guide chemistry for the preparation of new molecules to be tested for improved potency. For this iterative process we use a quantitative kinetic assay—the Aquaporin-Mediated Cell Volume Change Assa—in a 96-well multiplate reader. It detects changes in light scattering by a monolayer of CHO cells expressing the desired AQP as they shrink when exposed to hypertonic solution (300 mOsm→530 mOsm). FIG. 1 depicts the aquaporin-mediated cell volume change assay with AQP4 expressing cells (FIG. 1A) and AQP2 expressing cells (FIG. 1B). The cells expressing aquaporins shrink more rapidly than control cells, due to enhanced water flow, which shrinkage can be inhibited by a compound that inhibits the aquaporin.
(§2) In FIG. 1, aquaporin-expressing cells are shown in the presence of DMSO (triangles) or in the presence of the test compound (here, Compound 3) at 10 μM (squares), along with CHO-CD81 expressing control cells in the presence of DMSO (diamonds). Each curve represents an average of 16 wells in the 96-well plate.
(§3) In FIG. 1A, when the AQP4b cells treated with DMSO are exposed to hypertonic shock, the cells show rapid shrinking, giving a rise in light scattering (increasing relative change in absorbance, Abs/Abs0) followed by a decay as cells detach from the plate. […]

AQP2 = target: T1, AQP2 (Homo sapiens, UniProt P41181); test: Aquaporin-Mediated Cell Volume Change Assay, CHO cells expressing AQP2; assay type: cell-based; conditions: 10 μM, stable CHO cell line, FIG. 2
T1 construct: expressed in transfected cells
T1 sequence (P41181 1-271): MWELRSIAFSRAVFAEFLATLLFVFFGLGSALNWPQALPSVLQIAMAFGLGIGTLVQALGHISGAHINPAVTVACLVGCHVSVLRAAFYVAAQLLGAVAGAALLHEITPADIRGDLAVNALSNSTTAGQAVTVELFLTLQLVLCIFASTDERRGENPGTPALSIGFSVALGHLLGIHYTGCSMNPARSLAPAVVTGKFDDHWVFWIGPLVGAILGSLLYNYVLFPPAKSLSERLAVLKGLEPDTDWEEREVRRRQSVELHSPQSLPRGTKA
Procedure: as §1, §2, §3

AQP1 = target: T2, AQP1 (Homo sapiens, UniProt P29972); test: Aquaporin-Mediated Cell Volume Change Assay, CHO cells expressing AQP1 (specificity); assay type: cell-based; conditions: 10 μM, stable CHO cell line, FIG. 2
T2 construct: expressed in transfected cells
T2 sequence (P29972 1-269): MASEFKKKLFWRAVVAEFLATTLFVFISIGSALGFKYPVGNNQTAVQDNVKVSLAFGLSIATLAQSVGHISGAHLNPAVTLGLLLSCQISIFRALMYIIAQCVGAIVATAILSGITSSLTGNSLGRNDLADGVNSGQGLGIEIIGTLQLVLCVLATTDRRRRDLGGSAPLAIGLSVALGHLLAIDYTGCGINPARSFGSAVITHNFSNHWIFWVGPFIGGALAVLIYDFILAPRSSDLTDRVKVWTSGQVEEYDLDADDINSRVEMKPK
Procedure: as §1
(§4) The specificity of the compounds is tested against the most closely related of the 13 known aquaporins: AQP1, AQP2, AQP5 and both splice variants of AQP4 (A and B). A stable CHO cell line is created for each of the above aquaporins and the inhibition of water permeability using the Aquaporin-Mediated Cell Volume Change Assay with 10 μM Compound 3 is tested.

AQP5 = target: T3, AQP5 (Homo sapiens, UniProt P55064); test: Aquaporin-Mediated Cell Volume Change Assay, CHO cells expressing AQP5 (specificity); assay type: cell-based; conditions: 10 μM, stable CHO cell line, FIG. 2
T3 construct: expressed in transfected cells
Procedure: as §1, §4

purified AQP4b = purified AQP4b (Homo sapiens, UniProt P55087); test: Hummel-Dryer style binding assay with [3H]-Compound 4 and purified AQP4b; conditions: for Kd: detergent buffer, 1 μM [3H]-Compound 4, read-out: relative affinity
Procedure: To support the mechanism of action by which phenylbenzamides directly block AQP4, we perform in vitro binding studies using purified AQP4b and Compound 4 radiolabeled with ^3H. Using a Hummel-Dryer style assay, a gel filtration column is equilibratrated with buffer containing detergent, to maintain solubility of AQP4b, and 1 μM [^3H]-Compound 4. AQP4b is diluted to 250 μM in this column buffer and incubated at RT for 30 min. The sample is then applied to the column, fractions collected and the presence of [^3H]-Compound 4 detected by liquid scintillation counting. […] The rise in [^3H]-Compound 4 from a baseline value of 1 μM represents binding to each of these proteins.

[3] = test system: mouse middle cerebral artery occlusion (MCAo) model; test: Mouse MCAo stroke model, cerebral edema by MRI and neurological outcome
Procedure: To mimic this injury in mice, an intraluminal monofilament model of middle cerebral artery occlusion (MCAo) is used. Occlusion is achieved by inserting a surgical filament into the external carotid artery (ECA) and threading it forward into the internal carotid artery (ICA) until the tip blocks the origin of the MCA. […] This technique is used to study a temporary occlusion in which the MCA is blocked for one hour. The filament is then removed allowing reperfusion to occur for 24 hours before the animal's brain was imaged using T2-weighted scans in a 9.4 T Bruker MRI scanner at the Case Center for Imaging Research (FIG. 10).
Cerebral Edema—Mice are given saline or treated with Compound 5 by multi-dosing at 5 mg/kg i.p. every three hours (n=8 per treatment). […] Ipsilateral and contralateral hemispheric volume is measured from the T2-weighted MR images of mice 24 hours post-icus. Relative change in hemispheric volume is calculated as a percent of the difference between ipsilateral brain volume (Vi) and contralateral brain volume (Vc) relative to the contralateral brain volume (Percent Change in Hemispheric Brain Volume=((Vi−Vc)/Vc)×100%.
Neurological Outcome—In the same experiment as above, animals are scored for neurological outcome on a simple 5 point scale described in Manley, G. T. et al., Aquaporin-4 Deletion in Mice Reduces Brain Edema After Acute Water Intoxication and Ischemic Stroke, Nature Medicine, 6, 159-163 (2000).

[4] = test system: mouse middle cerebral artery occlusion (MCAo) model; test: Mouse MCAo stroke model, survival; assay type: in vivo; conditions: 2 mg/kg i.p. loading dose plus 1 mg/ml at 8 μl/h pump, versus saline, P<0.05
Procedure: To mimic this injury in mice, an intraluminal monofilament model of middle cerebral artery occlusion (MCAo) is used. Occlusion is achieved by inserting a surgical filament into the external carotid artery (ECA) and threading it forward into the internal carotid artery (ICA) until the tip blocks the origin of the MCA. […] This technique is used to study a temporary occlusion in which the MCA is blocked for one hour.
Survival—Mice are treated with Compound 5 using a 2 mg/kg i.p. loading dose and 1 mg/ml at 8 μl/h maintenance dose (delivered by an i.p. osmotic pump) of Compound 5, or given saline (controls; n=17) using an identical approach.

AQP = AQP inhibition cell-based assay (Table 1)
Procedure: as §1

purified AQP4b, sequence (P55087 23-323): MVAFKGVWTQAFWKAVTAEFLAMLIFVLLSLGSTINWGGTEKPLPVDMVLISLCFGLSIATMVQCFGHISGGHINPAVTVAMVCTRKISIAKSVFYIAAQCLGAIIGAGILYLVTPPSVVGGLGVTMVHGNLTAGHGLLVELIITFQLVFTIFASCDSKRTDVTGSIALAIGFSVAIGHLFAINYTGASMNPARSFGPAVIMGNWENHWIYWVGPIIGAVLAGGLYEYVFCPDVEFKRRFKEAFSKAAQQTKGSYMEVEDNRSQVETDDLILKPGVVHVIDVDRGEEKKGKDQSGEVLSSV
T3 sequence (P55064 whole entry): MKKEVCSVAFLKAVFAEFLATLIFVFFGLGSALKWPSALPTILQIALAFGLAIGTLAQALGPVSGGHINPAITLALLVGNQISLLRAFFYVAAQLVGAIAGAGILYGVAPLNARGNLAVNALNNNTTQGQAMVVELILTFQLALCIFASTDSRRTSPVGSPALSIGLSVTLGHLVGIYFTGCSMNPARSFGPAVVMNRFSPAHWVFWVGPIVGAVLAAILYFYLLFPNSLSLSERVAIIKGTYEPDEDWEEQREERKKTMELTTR

SMILES: O=C(Nc1cc(C(F)(F)F)cc(C(F)(F)F)c1)c1cc(Cl)ccc1OP(=O)(O)O
- bioconversion to Compound 1 (in words) ([1]; added to mouse plasma in vitro): rapid bioconversion
- time sufficient to render the salt undetectable ([1]; mouse plasma in vitro, 20° C.): Less than 5 minutes
- level of the salt in plasma samples of mice injected IP (in words) (IP injection): undetectable
- bioavailability and conversion to Compound 1 (in words) (IP injection, Compound 1 detected in plasma): good bioavailability and near-complete conversion

SMILES: O=C(Nc1cc(C(F)(F)F)cc(C(F)(F)F)c1)c1cc(Cl)ccc1O [Compound 1, N-(3,5-Bis-trifluoromethyl-phenyl)-5-chloro-2-hydroxy-benzamide]
- extent of CE during the period of observation (in words) ([2]; 0.76 mg/kg): reduced
- expected efficacious plasma concentration (taken from the mouse water toxicity model): 20 ng/mL
- solubility (Solubility in water): 3.8 µg/mL (≈ 9.9 µM)

SMILES: O=C(Nc1cc(Cl)cc(Cl)c1)c1cc(Cl)ccc1O [Compound 3]
- inhibition of water permeability (in words) (AQP4): inhibits
- inhibition of water permeability (in words) (AQP2): inhibits
- inhibition of water permeability (in words) (AQP1): poorly inhibits
- inhibition of water permeability (in words) (AQP5): poorly inhibits

SMILES: O=C(Nc1cc(C(F)(F)F)cc(C(F)(F)F)c1)c1cc(C(F)(F)F)ccc1O [Compound 4, N-[3,5-bis(trifluoromethyl)phenyl]-2-hydroxy-5-(trifluoromethyl)benzamide]
- Kd (purified AQP4b; monomeric AQP4b): < 1 µM
- binding to solubilized AQP4b (in words) (purified AQP4b; solubilized AQP4b): relatively weak binding
- Kd (purified AQP4b; tetrameric AQP4b): ~100 µM

SMILES: O=C(Nc1cc(C(F)(F)F)cc(C(F)(F)F)c1)c1cc(Cl)ccc1OP(=O)(O)O [Compound 5]
- neurological progression (in words) ([3]; 5 mg/kg i.p. every three hours): did not progress into a state of severe paralysis or death
- relative change in ipsilateral brain volume ([3]; 5 mg/kg i.p. every three hours, 24 hours after MCAo, ±SEM, control 13.4%±1.9%): 4.2±1.7%
- reduction in brain swelling after MCAo ([3]; 5 mg/kg i.p. every three hours, versus control): 3.2 fold
- average neurological score ([3]; 5 point scale, P=0.025, control 2.77±0.66): 0.88±0.31
- improvement in overall survival at 24 h [4]: 29.4%
- solubility (Solubility in water): 1000 µg/mL (≈ 2160 µM)

SMILES: O=C(Nc1ccccc1)c1ccccc1 [Phenylbenzamide, reference compound]
- AQP Inhibition Cell-Based Assay (AQP): 4.5%
- reduction in the rate of CE (in words) ([2]; 0.39 mg/kg): fails to show reduction
